Laboratory results from patent US8133886B2, “Heterobicyclic carboxamides as inhibitors for kinases” (Novartis AG, priority 2006, dated 2012).

For `COc1ccc(-n2nc(C(C)(C)C)cc2NC(=O)c2cccc3cc(Oc4cc(NCCN(C)C)ncn4)ccc23)cc1` [Example 19, 6-[6-(2-Dimethylamino-ethylamino)-pyrimidin-4-yloxy]-naphtalene-1-carboxylic acid [5-tert-butyl-2-(4-methoxy-phenyl)-2H-pyrazol-3-yl]-amide], which melting point is on record?
The melting point was 116 to 117 °C.

With `COCc1cc(Oc2ccc3c(C(=O)Nc4ccc(C)c(C(F)(F)F)c4)cccc3c2)ncn1` [Example 18C, 6-(6-Methoxymethyl-pyrimidin-4-yloxy)-naphthalene-1-carboxylic acid (4-methyl-3-trifluoromethyl-phenyl)-amide] as the molecule, how does the melting point read?
Its melting point is 188 °C.

For `O=C(Nc1ccc(Cl)c(C(F)(F)F)c1)N1COc2cc(Oc3ccnc(Cl)n3)ccc21` [Example 1, 6-(2-Chloro-pyrimidin-4-yloxy)-benzooxazole-3-carboxylic acid (4-chloro-3-trifluoromethyl-phenyl)-amide], which melting point is on record?
The melting point was 140 to 142 °C.

Which melting point does the source give for `CS(=O)(=O)Nc1nccc(Oc2ccc3c(C(=O)Nc4ccc(F)c(C(F)(F)F)c4)cccc3c2)n1` [Example 13, 6-(2-Methanesulfonylamino-pyrimidin-4-yloxy)-naphthalene-1-carboxylic acid (4-fluoro-3-trifluoromethyl-Phenyl)-amide] here?
Its melting point is 246 °C.

With `CCOC(=O)c1cc(Oc2ccc3c(C(=O)Nc4ccc(C(C)(C)C)cc4)cccc3c2)ncn1` [Example 18] as the molecule, how does the melting point read?
Its melting point is 177 to 178 °C.

Which melting point does the source give for `CC(C)(C)c1ccc(NC(=O)c2cccc3cc(Oc4cc(CO)ncn4)ccc23)cc1` [Example 18A, 6-(6-Hydroxymethyl-pyrimidin-4-yloxy)-naphthalene-1-carboxylic acid (4-tert-butyl-phenyl)-amide] here?
The melting point was 202 to 203 °C.
